{"source": "paper PMC9782626", "about": "“Copper(II) Complexes of 5–Fluoro–Salicylaldehyde: Synthesis, Characterization, Antioxidant Properties, Interaction with DNA and Serum Albumins” (Molecules, 2022)", "key": {"[1]": {"test": "DPPH radical scavenging assay", "assay_type": "biochemical", "conditions": "compound 0.1 mM", "excerpt": "(§1) For the above reasons, the antioxidant ability of 5–F–saloH and Cu(II) complexes 1–5 has been evaluated via their scavenging activity towards DPPH and ABTS radicals, as well as the ability to reduce H2O2, and in comparison with that of well-known antioxidant agents such as nordihydroguaiaretic acid (NDGA), butylated hydroxytoluene (ΒHΤ), 6–hydroxy–2,5,7,8–tetramethylchromane–2–carboxylic acid (trolox) and L–ascorbic acid (these are the most commonly used standard reference antioxidant agents). The DPPH-radical assay was developed in the 1950s and this method has been used to assess the antioxidant capacity of several metal complexes. The DPPH–scavenging ability of compounds has often been related to their ability to prevent ageing, cancer and inflammation. The ability of a compound to scavenge the cationic ABTS radicals (ABTS^+●) has been considered a measure of its total antioxidant activity. Further, hydrogen peroxide has the ability to penetrate biological membranes and, although it is not very reactive itself, it can sometimes be toxic since it may give rise to hydroxyl radicals in cells. For this reason, the removal of H2O2 is very important for the protection of living systems. When a compound is incubated with H2O2 using a peroxidase assay system, the loss of H2O2 can be measured.\n(§2) S1 Antioxidant activity assay\n(§3) The antioxidant activity of the compounds was evaluated via their ability to scavenge in vitro free radicals such as DPPH and ABTS and to reduce H 2O2. All the experiments were carried out at least in triplicate and the standard deviation of absorbance was less than 10% of the mean.\nS1.1 Determination of the reducing activity of the radical DPPH\nTo an ethanolic solution of DPPH (0.1 mM) an equal volume solution of the compounds (0.1 mM) in ethanol was added. Absolute ethanol was also used as control solution. The absorbance at 517 nm was recorded at room temperature after 30 and 60 min, in order to examine the possible existence of a potential time-dependence of the DPPH radical scavenging act iv ity [S 1]. The DPPH -scavenging activity of the compounds was expressed as the percentage reduction of the absorbance values of the initial DPPH solution ( DPPH%). N DGA and BHT were used as reference comp ounds. […]"}, "[2]": {"test": "Reduction of hydrogen peroxide", "assay_type": "biochemical", "conditions": "compound 0.1 mM, 10 min, pH 7.4", "excerpt": "as §1, §2, §3\nS1.1 Determination of the reducing activity of the radical DPPH […]\nS1.3 Reduction of hydrogen peroxide\nThe ability of the com pounds to reduce hydrogen peroxide (H2O2) was est imated according to the method descr ibed in the literature [S2]. The reaction mixture contained 20 μL of each of the tested compounds (0.1 mM) and 5 μL H2O 2 solution (40 mM) in phosphate buffer (50 mM, pH = 7.4). The absorbance was measure d at 230 nm after 10 min.\nThe antioxidant activity (reduction of hydrogen peroxide) of the compounds wa s […]\nexpressed as the percentage decrease of t he init ial H 2O2 solution (H 2O2%). L-ascor b ic ac id (or vitamin C) was use d as a standard. […]\n[DNA] = [DNA] + 1 (eq. S1) […]\nwhere [DNA] is the concentration of DNA in base pa irs, εA = Aobsd/[compound ], εf = the extinction coefficient for the free compound and ε b = the extinction coefficient for the compound in the fully bound form. Kb is given by the ratio of slope to the y intercept in plots [DNA]/(εA-εf) versus[DNA].\nS2.2CT DNA -binding studie s by viscosity measurements\nThe interaction of compounds with DNA has been evaluated via the study of the CT DNA viscosity ([DNA] = 0.1 mΜ) in a buffer solution (150 mM NaCl and 15 mM trisodium citrate at pH 7.0) in the presence of increasing amount of complexes (up to the value of r = 0.36). The obtained data are presented as (η/η 0)1/3 versus r, where η is the viscosity of DNA in the presence of the compound, and η0 is the viscosity of DNA alone in buffer solution.\nS2.3 EB -displa cement studie s\nThe competition of the complexes with EB was investigated by fluorescence emission spectroscopy in order to examine whether the compounds can displace EB from its DNA-EB conjugate. The CT DNA-EB complex was formed by pre-treating 20 μM EB and 26 μM CT DNA in buffer (150 mM NaCl and 15 mM trisodium citrate at pH = 7.0).\nThe possible displacement of EB by the compounds and su bseq uently t he ir intercalating effect was studied by the stepwise addition of a certain amount of the solution of each"}, "[3]": {"design": "method as in PMID 35890184", "conditions": "cited from earlier work"}, "[4]": {"target": "T1, human serum albumin (HSA) (Homo sapiens, UniProt P02768)", "T1 construct": "purchased Sigma–Aldrich Co", "T1 sequence (P02768 25-609)": "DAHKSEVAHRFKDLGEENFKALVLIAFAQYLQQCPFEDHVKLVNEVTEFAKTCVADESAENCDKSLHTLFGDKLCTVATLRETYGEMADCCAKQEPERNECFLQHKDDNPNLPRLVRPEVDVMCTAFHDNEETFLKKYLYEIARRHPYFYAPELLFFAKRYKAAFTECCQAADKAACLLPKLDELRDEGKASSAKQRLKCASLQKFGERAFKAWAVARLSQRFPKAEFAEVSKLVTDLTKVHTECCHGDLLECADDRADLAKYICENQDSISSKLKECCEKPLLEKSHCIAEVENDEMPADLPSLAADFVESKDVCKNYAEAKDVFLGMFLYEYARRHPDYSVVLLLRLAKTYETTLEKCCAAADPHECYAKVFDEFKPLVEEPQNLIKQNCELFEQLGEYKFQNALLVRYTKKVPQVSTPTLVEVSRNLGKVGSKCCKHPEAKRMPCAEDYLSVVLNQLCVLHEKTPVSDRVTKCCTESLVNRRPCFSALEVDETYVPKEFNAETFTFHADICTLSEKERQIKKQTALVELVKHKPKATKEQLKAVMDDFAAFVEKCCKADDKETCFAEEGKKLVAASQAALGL", "design": "method as in PMID 35890184", "conditions": "cited from earlier work"}, "[5]": {"design": "method as in PMID 35890184", "conditions": "cited from earlier work", "remark": "listed apart in the source"}, "[6]": {"target": "T2, bovine serum albumin (BSA) (Bos taurus, UniProt P02769)", "T2 construct": "purchased Sigma–Aldrich Co", "T2 sequence (P02769 25-607)": "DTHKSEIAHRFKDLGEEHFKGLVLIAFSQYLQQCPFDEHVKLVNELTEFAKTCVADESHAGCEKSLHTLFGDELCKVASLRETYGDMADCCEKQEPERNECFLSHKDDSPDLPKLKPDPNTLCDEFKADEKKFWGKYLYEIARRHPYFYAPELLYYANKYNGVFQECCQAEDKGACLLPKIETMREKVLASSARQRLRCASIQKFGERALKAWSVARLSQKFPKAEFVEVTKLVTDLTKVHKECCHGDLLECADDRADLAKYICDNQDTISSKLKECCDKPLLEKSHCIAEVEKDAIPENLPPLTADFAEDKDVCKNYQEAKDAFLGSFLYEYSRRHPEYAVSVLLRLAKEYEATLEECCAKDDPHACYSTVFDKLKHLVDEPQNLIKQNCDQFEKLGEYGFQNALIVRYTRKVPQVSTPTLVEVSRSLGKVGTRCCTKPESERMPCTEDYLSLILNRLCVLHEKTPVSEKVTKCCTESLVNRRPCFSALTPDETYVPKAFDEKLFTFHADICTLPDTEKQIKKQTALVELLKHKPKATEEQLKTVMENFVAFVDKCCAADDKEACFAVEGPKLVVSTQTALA", "design": "method as in PMID 35890184", "conditions": "cited from earlier work"}, "[7]": {"system": "EB–DNA conjugate (CT DNA)", "design": "method as in PMID 35890184", "conditions": "cited from earlier work"}, "[8]": {"system": "CT DNA", "conditions": "cited from earlier work"}, "[9]": {"design": "method as in PMID 35890184", "conditions": "cited from earlier work", "remark": "listed apart in the source"}, "[10]": {"test": "ABTS radical cation scavenging assay", "assay_type": "biochemical", "conditions": "compound 0.1 mM, 1 min", "excerpt": "as §1, §2\nThe antioxidant activity of the compounds was evaluated via their ability to scavenge in vitro free radicals such as DPPH and ABTS and to reduce H 2O2. All the experiments were carried out at least in triplicate and the standard deviation of absorbance was less than 10% of the mean. […]\nS1.2 Assay of radical cation ABTS-scavengin g activity\nThe ABTS assay was performed to determine the activity of the compounds to scavenge the radical cation ABTS. Initially, a water solution of ABTS was prepared (2 mM). ABTS radical cation (ABTS+·) was produced by the reaction of ABTS stock solution with potassium persulfate (0.17 mM) and the mixture was stored in the dark at room temperature for 12-16 h before its use. The ABTS was oxidized incompletely because the stoichiometric reaction ratio of ABTS and potassium persulfate is 1:0.5. The absorbance became maximal and stable only after more than 6 h of reaction although the oxidation of the ABTS started immediately. The radical was stable in this form for more than 2 days when allowed to stand in the dark at room temperature. Afterwards, the ABTS+· solution was diluted in ethanol to an absorbance of 0.70 at 734 nm and 10 μL of diluted compounds or standards (0.1 mM) in DMSO were added. The absorbance was recorded out exactly 1 min after init ial m ix in g [S 1]. The ABTS radical scavenging act ivit y was expressed as the percentage inhibition of the absorbance of the initial ABTS solution (ABTS%). Trolox was used as an appropriate standard. […]"}}, "note": "Read-outs that look alike come from different tables or passages of the source."}
{"smiles": "Cc1cc(C(C)(C)C)c(O)c(C(C)(C)C)c1", "note": "[BHT, butylated hydroxytoluene, reference compound]", "values": [{"measurement": "DPPH% (30 min), % DPPH–scavenging ability", "setting": "[1]", "result": "61.30 ± 1.16", "unit": "%"}, {"measurement": "DPPH% (60 min), % DPPH–scavenging ability", "setting": "[1]", "result": "79.78 ± 1.12", "unit": "%"}]}
{"smiles": "O=C1O[C@H]([C@@H](O)CO)C(O)=C1O", "note": "[L–ascorbic acid, reference compound]", "values": [{"measurement": "H2O2%, H2O2–reducing activity", "setting": "[2]", "result": "60.80 ± 0.20", "unit": "%"}]}
{"smiles": "O=Cc1cc(F)ccc1O", "note": "[5–F–saloH, 5–fluoro–salicylaldehyde]", "values": [{"measurement": "H2O2%, H2O2–reducing activity", "setting": "[3]", "result": "71.84 ± 0.95", "unit": "%"}, {"measurement": "HSA-binding constant K", "setting": "[4]", "result": "4.65 (±0.35) × 10^4 M^−1"}, {"measurement": "HSA-quenching constant kq", "setting": "[4]", "result": "1.96 (±0.07) × 10^12 M^−1 s^−1"}, {"measurement": "ΔΙ/Ιο, quenching of the HSA fluorescence", "setting": "[4]", "result": 25.7, "unit": "%"}, {"measurement": "% relative HSA fluorescence emission intensity I/Io remaining (% of initial)", "setting": "[4]; final value", "result": 74.3, "unit": "%"}, {"measurement": "DPPH% (30 min), % DPPH–scavenging ability", "setting": "[5]; 30 min", "result": "3.96 ± 1.16", "unit": "%"}, {"measurement": "DPPH% (60 min), % DPPH–scavenging ability", "setting": "[5]; 60 min", "result": "5.56 ± 1.06", "unit": "%"}, {"measurement": "BSA-binding constant K", "setting": "[6]", "result": "4.31 (±0.31) × 10^4 M^−1"}, {"measurement": "BSA-quenching constant kq", "setting": "[6]", "result": "1.98 (±0.08) × 10^12 M^−1 s^−1"}, {"measurement": "ΔΙ/Ιο, quenching of the BSA fluorescence", "setting": "[6]", "result": 25.7, "unit": "%"}, {"measurement": "% relative BSA fluorescence emission intensity I/Io remaining (% of initial)", "setting": "[6]; final value", "result": 74.3, "unit": "%"}, {"measurement": "EB–DNA quenching constant kq", "setting": "[7]", "result": "1.73 (±0.05) × 10^12 M^−1 s^−1"}, {"measurement": "Stern–Volmer constant Ksv (EB–DNA)", "setting": "[7]", "result": "3.79 (±0.11) × 10^4 M^−1"}, {"measurement": "ΔΙ/Ιο, percentage of EB–DNA fluorescence quenching", "setting": "[7]", "result": 51.3, "unit": "%"}, {"measurement": "EB–DNA relative fluorescence emission intensity I/Io remaining (% of initial)", "setting": "[7]; λemission = 592 nm, final value", "result": 48.7, "unit": "%"}, {"measurement": "ΔA/Aο, percentage of hyper-/hypo-chromism upon addition of CT DNA", "setting": "[8]; band at 334 nm", "result": "−30", "unit": "%"}, {"measurement": "ΔA/Aο, percentage of hyper-/hypo-chromism upon addition of CT DNA", "setting": "[8]; band at 421 nm", "result": "> +50%"}, {"measurement": "ABTS%, % ABTS–scavenging activity", "setting": "[9]", "result": "19.57 ± 0.58", "unit": "%"}]}
{"smiles": "Cc1c(C)c2c(c(C)c1O)CCC(C)(C(=O)O)O2", "note": "(stereo not drawn) [Trolox, 6–hydroxy–2,5,7,8–tetramethylchromane–2–carboxylic acid, reference compound]", "values": [{"measurement": "ABTS%, % ABTS–scavenging activity", "setting": "[10]", "result": "98.10 ± 0.48", "unit": "%"}]}
{"smiles": "CC(Cc1ccc(O)c(O)c1)C(C)Cc1ccc(O)c(O)c1", "note": "(stereo not drawn) [NDGA, nordihydroguaiaretic acid, reference compound]", "values": [{"measurement": "DPPH% (30 min), % DPPH–scavenging ability", "setting": "[1]", "result": "87.08 ± 0.12", "unit": "%"}, {"measurement": "DPPH% (60 min), % DPPH–scavenging ability", "setting": "[1]", "result": "87.47 ± 0.12", "unit": "%"}]}
